Measurements: patent publication US7122360B1, “Polypeptides, polynucleotides and uses thereof” (University of Dundee, priority 1998, dated 2006)
Entries after “also recorded” stand apart in the source; their conditions may differ.

Columns and labels:
[1] = test system: MSK1; assay: Activation of transfected Flag-MSK1 in 293 cells; assay type: cell-based, human; details: for UV-induced activation of transfected MSK1 / activation of transfected MSK1 by TPA: 50 μM PD 98059 or 10 μM SB 203580
Method: FIG. 6. Effect of mutation of MSK1 on activation by TPA and UV in 293 cells. 293 cells were transiently transfected with DNA constructs expressing Flag epitope tagged wild type MSK1, N-terminal (NT) “kinase dead” MSK1 and C-terminal (CT) “kinase dead” MSK1. […] The cells were lysed and the MSK1 was immunoprecipitated from the lysates and assayed with Crosstide.
Transfection of MSK1 into 293 cells. 293 cells were cultured on 10 cm diameter dishes and transfected with the pCMV5 vector encoding the Flag epitope tagged MSK1 constructs using a modified calcium phosphate method (Alessi et al., 1996b). 24 h post-transfection, the cells were deprived of serum for 16 h, stimulated with TPA or exposed to UV radiation, the cells were then lysed in 1 ml of ice cold Buffer A, centrifuged at 13,000×g for 5 min, and the Flag tagged MSK1 protein immunoprecipitated from aliquots of lysate (containing 25 μg protein) using 2 μg of FLAG antibody coupled to 5 (1 of Protein G-Sepharose.
Immunoprecipitates were incubated, washed and assayed for MSK1 activity as described above.

[2] = test system: MSK1; assay: NGF-induced activation of MSK1 in PC12 cells; details: 50 μM PD 98059, 10 μM SB 203580, NGF 30 ng/ml 15 min
[3] = test system: MAPK; details: PC12 cells expressing high levels of the NGF receptor (Alessi et al., 1995); cited from earlier work
[4] = test system: MSK1; assay: Activation of MSK1 by TNF in HeLa cells; assay type: cell-based; details: 50 μM PD 98059, 10 μM SB 203580, TNF 10 ng/ml
Description: (§1) Cell Culture, stimulation and cell lysis.

[5] = test system: MAPKAP-K1; assay: NGF-induced activation of MAPKAP-K1 in PC12 cells; details: 50 μM PD 98059, 10 μM SB 203580
[6] = test system: MAPKAP-K1a/b; assay: Activation of MAPKAP-K1a/b in 293 cells; details: 50 μM PD 98059 or 10 μM SB 203580
[7] = test system: MAPKAP-K1a/b; assay: Activation of MAPKAP-K1a/b by TNF in HeLa cells; assay type: cell-based; details: 50 μM PD 98059, 10 μM SB 203580
Description: as §1

[8] = test system: MAPKAP-K1; assay: Activation of MAPKAP-K1 in SK-N-MC cells; assay type: cell-based; details: 50 μM PD 98059, 10 μM SB 203580
Method: (§2) FIG. 14. […] After cell lysis aliquots were assayed for either MSK1 (A), MAPKAP-K1 (B), MAPKAP-K2 (C) after their immunoprecipitation from the lysates or immunoblotted for phosphorylation of CREB and ATF1 (D).
as §1

[9] = test system: MAPKAP-K2; assay: Activation of MAPKAP-K2 by TNF in HeLa cells; assay type: cell-based
Description: as §1

[10] = test system: MAPKAP-K2; assay: Activation of MAPKAP-K2 in SK-N-MC cells; assay type: cell-based; details: 50 μM PD 98059, 10 μM SB 203580, 5 μM Ro 318220
Method: as §2, §1

[11] = test system: MAPKAP-K2; assay: Activation of MAPKAP-K2 in 293 cells; assay type: cell-based, human; details: 50 μM PD 98059 or 10 μM SB 203580
Method: (§3) FIG. 9. Effect of Ro 318220 on the activity of MSK1. (A) Effect of Ro 318220 on GST-MSK1 (closed circles), mixed PKC isoforms (open circles) GST-MAPKAP-K1b and MAPKAP-K2 (open triangles) in vitro. […] The error for each point is ±10%. […] The cells were lysed MAPKAP-K2 was immunoprecipitated and assayed. […] (C) as above except that 293 cells were incubated for 2 h in 32phosphate (0.1 mCi/ml) before treatment with inhibitors. Cells were then exposed to either UV radiation (200 J/m2) or left untreated (−), incubated for a further 20 min in the continued presence of inhibitors. Following cell lysis, HSP27 was immunoprecipitated from cell extracts (Cuenda et al., 1995) run on a 15% polyacrylamide gel and autoradiographed.
as §1

[12] = test system: MAPKAP-K2; assay: LPS-induced activation of MAPKAP-K2 in RAW 264 macrophages; assay type: cell-based, mouse; details: LPS 100 ng/ml 1 h, 10 μM SB 203580, 5 TM Ro 318220
[13] = test system: MSK2; assay: LPS-induced activation of MSK2 in RAW 264 macrophages; assay type: cell-based, mouse; details: LPS 100 ng/ml 1 h, 10 μM UO 126, 10 μM SB 203580, 5 TM Ro 318220
[14] = test system: PKC isoforms; assay: Effect of Ro 318220 on mixed PKC isoforms in vitro; assay type: biochemical; details: Davis et al., 1989, Alessi 1997, FIG. 9A
Method: as §3

[15] = molecular target: cyclic AMP dependent protein kinase (Homo sapiens, UniProt P17612); details: 10 μM Ro 318220 (Davis et al., 1989); cited from earlier work
[16] = test system: MAPKAP-K1; assay: LPS-induced activation of MAPKAP-K1 in RAW 264 macrophages; assay type: cell-based, mouse; details: LPS 100 ng/ml 1 h, 10 μM UO 126, 5 TM Ro 318220
[17] = molecular target: MSK1 (Homo sapiens, UniProt O75582); assay: Effect of Ro 318220 on GST-MSK1 activity in vitro; assay type: biochemical; details: compared with PKC isoforms and MAPKAP-K1a/b
[18] = molecular target: T1, MAPKAP-K2 (Homo sapiens, UniProt P49137); assay: Effect of Ro 318220 on MAPKAP-K2 in vitro; assay type: biochemical; details: even at 10 μM
T1 construct: GST; made in house; host or cells: bacteria
Method: as §3

[19] = molecular target: T2, MAPKAP-K1a/b (Oryctolagus cuniculus, UniProt A0A5F9C4L9); assay: Effect of Ro 318220 on MAPKAP-K1a/b in vitro; assay type: biochemical; details: Alessi 1997, FIG. 9A
T2 construct: GST
Method: as §3

Chain of MSK1 (Homo sapiens, UniProt O75582) (O75582 whole entry, canonical isoform): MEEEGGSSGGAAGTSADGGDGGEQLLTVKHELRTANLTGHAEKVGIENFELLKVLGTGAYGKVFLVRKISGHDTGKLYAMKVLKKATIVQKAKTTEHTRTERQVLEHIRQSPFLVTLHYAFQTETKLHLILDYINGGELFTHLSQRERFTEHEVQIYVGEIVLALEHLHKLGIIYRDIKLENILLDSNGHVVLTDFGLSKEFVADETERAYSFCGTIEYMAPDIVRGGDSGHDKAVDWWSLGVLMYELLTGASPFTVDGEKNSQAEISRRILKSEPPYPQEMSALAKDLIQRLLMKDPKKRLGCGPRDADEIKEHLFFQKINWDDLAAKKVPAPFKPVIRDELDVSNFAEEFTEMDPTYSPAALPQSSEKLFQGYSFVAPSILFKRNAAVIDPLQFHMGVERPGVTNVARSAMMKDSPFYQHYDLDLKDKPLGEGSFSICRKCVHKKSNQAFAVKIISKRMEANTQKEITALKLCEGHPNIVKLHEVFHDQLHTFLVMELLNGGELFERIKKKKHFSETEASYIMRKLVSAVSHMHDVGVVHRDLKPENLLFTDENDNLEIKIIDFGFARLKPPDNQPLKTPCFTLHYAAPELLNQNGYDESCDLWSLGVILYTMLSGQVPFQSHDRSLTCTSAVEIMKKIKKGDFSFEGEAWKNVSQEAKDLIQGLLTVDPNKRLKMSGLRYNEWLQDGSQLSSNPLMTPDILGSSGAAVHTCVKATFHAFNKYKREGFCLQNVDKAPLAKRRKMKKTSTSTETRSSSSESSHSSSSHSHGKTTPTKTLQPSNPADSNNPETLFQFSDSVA
T2 sequence (A0A5F9C4L9 1-740): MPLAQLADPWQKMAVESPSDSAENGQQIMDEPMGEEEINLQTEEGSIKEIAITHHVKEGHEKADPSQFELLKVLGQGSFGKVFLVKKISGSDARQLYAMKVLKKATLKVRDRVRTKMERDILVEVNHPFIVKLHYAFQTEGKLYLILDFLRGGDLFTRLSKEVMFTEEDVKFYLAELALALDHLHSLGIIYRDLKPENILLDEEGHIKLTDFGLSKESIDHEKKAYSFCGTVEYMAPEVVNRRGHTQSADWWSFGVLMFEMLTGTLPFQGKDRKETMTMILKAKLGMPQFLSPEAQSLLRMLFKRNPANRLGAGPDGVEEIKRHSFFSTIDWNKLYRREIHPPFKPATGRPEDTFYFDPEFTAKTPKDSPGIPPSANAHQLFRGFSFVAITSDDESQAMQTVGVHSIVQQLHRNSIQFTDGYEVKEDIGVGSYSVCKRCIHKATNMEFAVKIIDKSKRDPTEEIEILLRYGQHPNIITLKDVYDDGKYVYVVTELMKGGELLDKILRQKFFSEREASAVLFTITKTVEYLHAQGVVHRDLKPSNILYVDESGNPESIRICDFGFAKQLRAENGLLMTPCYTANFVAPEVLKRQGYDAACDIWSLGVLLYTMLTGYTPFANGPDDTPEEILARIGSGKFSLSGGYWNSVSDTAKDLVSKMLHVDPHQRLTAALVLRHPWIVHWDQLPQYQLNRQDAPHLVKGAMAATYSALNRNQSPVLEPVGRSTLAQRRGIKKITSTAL
T1 sequence (P49137 46-400 limits assumed): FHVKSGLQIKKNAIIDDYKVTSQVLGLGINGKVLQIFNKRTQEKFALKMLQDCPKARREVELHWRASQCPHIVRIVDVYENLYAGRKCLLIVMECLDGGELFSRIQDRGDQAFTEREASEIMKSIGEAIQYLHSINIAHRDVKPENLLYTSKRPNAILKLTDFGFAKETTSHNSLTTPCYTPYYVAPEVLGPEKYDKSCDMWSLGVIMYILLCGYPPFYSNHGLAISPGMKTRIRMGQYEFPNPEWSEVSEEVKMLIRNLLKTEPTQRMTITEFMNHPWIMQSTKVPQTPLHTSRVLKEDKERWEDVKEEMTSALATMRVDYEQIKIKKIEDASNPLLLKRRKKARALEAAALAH

| Compound | UV-induced activation of transfected MSK1 [1] | activation of transfected MSK1 by TPA [1] | NGF-induced activation of MSK1 [2] | activation of MSK1 by TNF after 5 min [4] | activation of MSK1 by TNF after 15 min [4] | NGF-induced activation of MAPKAP-K1 [5] | activation of MAPKAP-K1a/b by EGF and TPA [6] | activation of MAPKAP-K2 by sodium arsenite and FGF [10] | LPS-induced activation of MAPKAP-K2 [12] | LPS-induced activation of MSK2 [13] | also measured |
| --- | --- | --- | --- | --- | --- | --- | --- | --- | --- | --- | --- |
| COc1cccc(-c2cc(=O)c3ccccc3o2)c1N [PD 98059] | unaffected | prevented | not significantly affected | unaffected | partially blocked | only partially inhibited | largely suppressed | – | – | – | activation of transfected wild type MSK1 by EGF, basic FGF and serum ([1]; data not shown): prevented; NGF-induced activation of MAPK [3]: only partially suppresses; activation of MAPKAP-K1a/b after 15 min of TNF stimulation [7]: suppressed; activation of MAPKAP-K1 by FGF [8]: abolished |
| C[S+]([O-])c1ccc(-c2nc(-c3ccncc3)c(-c3ccc(F)cc3)[nH]2)cc1 (stereo not drawn) [SB 203580] | prevented | but not by SB 203580 | not significantly affected | completely inhibited | partially blocked | unaffected | but not by SB 203580 | completely prevented | completely block | only inhibited partially | activation of MAPKAP-K2 after 5 min of TNF stimulation ([9]; 50 μM PD 98059, 10 μM SB 203580): inhibited; activation of MAPKAP-K2 by stressful stimuli [11]: prevented |
| Cn1cc(C2=C(c3cn(CCCSC(=N)N)c4ccccc34)C(=O)NC2=O)c2ccccc21 [Ro 318220] | – | – | – | – | – | – | – | does not affect | does not affect | does not affect | activation of MAPKAP-K2 by TNF ([9]; 5 μM Ro 318220, data not shown): unaffected; IC50 [14]: 10 to 30 nM; inhibition of cyclic AMP dependent protein kinase [15]: not significantly inhibited; LPS-induced activation of MAPKAP-K1 [16]: does not affect; inhibition of MSK1 activity in vitro [17]: equally potent inhibitor; also recorded: reversible inhibitor; inhibition of MAPKAP-K2 in vitro [18]: does not significantly inhibit; IC50 [19]: 10 to 30 nM |
